These results are taken from PMC7823860, “Flavonoid Glycosides with a Triazole Moiety for Marine Antifouling Applications: Synthesis and Biological Activity Evaluation” (Marine Drugs, 2020).

Data set [1] in a line: Mussel (Mytilus galloprovincialis) larvae anti-settlement bioassay. Type of data set: in vivo. The conditions noted are these: in vivo, mussel plantigrade larvae, read-out: LC50 (median lethal dose). As for the experimental part: (§1) Mussel (Mytilus galloprovincialis) plantigrades were collected in juvenile aggregates during low neap tides at Memória beach, Matosinhos, Portugal (41°13′59″ N; 8°43′28″ W). In laboratory, mussel plantigrade larvae (0.5–2 mm) were isolated in a binocular magnifier (Olympus SZX2-ILLT, Tokyo, Japan) to a petri dish with filtered seawater, and those with functional foot and competent exploring behaviour were selected for the bioassays. The flavonoids were screened at 50 µM in 24-well microplates with 4 well replicates per condition and 5 larvae per well, for 15 h, in the darkness at 18 ± 1 °C, following Almeida et al. (2015). Test solutions were obtained by dilution of the compounds stock solutions (50 mM) in DMSO and prepared with filtered seawater. All bioassays included a negative control with DMSO and a positive control with CuSO4, a potent AF agent. After the exposure period, the anti-settlement activity was determined by the presence/absence of attached byssal threads produced by each individual larvae.
(§2) All compounds that caused more than 60% of settlement inhibition (≤40% of settlement) in the screening bioassay were considered active and selected for the determination of the semi-maximum response concentration that inhibited 50% of larval settlement (EC50), at compounds concentrations of 3.12, 6.25, 12.5, 25, 50, 100, 200 μM.
(§3) Datasets from anti-settlement, antibacterial and anti-microalgal bioassay, and determination of AChE and Tyr activities, were analysed by one-way analysis of variance (ANOVA) followed by a multi-comparisons Dunnett’s test against negative control (p < 0.05). For the AF bioassays, the half maximum response concentration (EC50) values for each compound, when applicable, were calculated using Probit regression analysis. Significance was considered at p < 0.01, and 95% lower and upper confidence limits (95%LCL; UCL). The software IBM SPSS Statistics 26 (Armonk, New York, USA) was used for statistical analysis.

For data set [2], the system named is Mytilus galloprovincialis plantigrade larvae. Described as above. Type of data set: in vivo. The conditions noted are these: 15 h, 15 h exposure, read-out: EC50 (minimum concentration that inhibited 50% of larval settlement). As for the experimental part:
as §1, §2, §3

Data set [3] relates to Roseobacter litoralis CECT 5395. The data set can be described thus: Biofilm-forming marine bacteria growth inhibition. Conditions: 15 µM, 24 h, Dunnett test p < 0.05. Type of data set: cell-based. As to the method:
For anti-bacterial screening, five strains of marine biofilm-forming bacteria from the Spanish Type Culture Collection (CECT): Cobetia marina CECT 4278, Vibrio harveyi CECT 525, Halomonas aquamarina CECT 5000, Pseudoalteromonas atlantica CECT 570, and Roseobacter litoralis CECT 5395 were used. Bacteria were inoculated and incubated for 24 h at 26 °C in marine broth (Difco) at an initial density of 0.1 (OD600) in 96 well flat-bottom microtiter plates and exposed to the test compounds at 15 μM. Test solutions were obtained by dilution of the compounds stock solutions (50 mM) in DMSO. Bacterial growth inhibition in the presence of the compounds was determined in quadruplicate at 600 nm using a microplate reader (Biotek Synergy HT, Vermont, USA). Negative and positive controls used were a solution of marine broth with DMSO, and a solution of marine broth with penicillin–streptomycin–neomycin, respectively. […]
Datasets from anti-settlement, antibacterial and anti-microalgal bioassay, and determination of AChE and Tyr activities, were analysed by one-way analysis of variance (ANOVA) followed by a multi-comparisons Dunnett’s test against negative control (p < 0.05). For the AF bioassays, the half maximum response concentration (EC50) values for each compound, when applicable, were calculated using Probit regression analysis. […]

Data set [4] has as its system Artemia salina nauplii. The data set can be described thus: Artemia salina nauplii lethality (ecotoxicity) bioassay. Type of data set: in vivo. The conditions noted are these: 25 and 50 μM, 48 h of exposure. As to the method: The brine shrimp (Artemia salina) nauplii lethality test was used to determine the toxicity of promising AF compounds to non-target organisms. Artemia salina eggs were allowed to hatch in seawater for 48 h at 25 °C. Bioassays were performed in 96-wells microplates with 15–20 nauplii per well and 200 μL of the compounds test solution. Compounds were tested at final concentrations of 25 and 50 μM (filtered seawater with 1% DMSO). All tests included K2Cr2O7 (13.6 μM) as positive control and DMSO (1%) as negative control. Bioassays were run in the dark at 25 °C, and the percentage of mortality was determined after 48 h of exposure.

Another data set deals with Navicula sp. The data set can be described thus: Biofilm-forming marine diatom growth inhibition. Format: cell-based. Conditions: 10 days. As for the experimental part:
The anti-microalgal activity of the most promising compounds was also evaluated against a benthic marine diatom, Navicula sp., purchased from the (Telde, Gran Canaria) Spanish Collection of Algae (BEA). Diatom cells were inoculated in f/2 medium (Sigma) at an initial concentration of 2–4 × 10^6 cells mL^−1 and grown in 96-well flat-bottom microtiter plates for 10 days at 20 °C. Navicula growth inhibition in the presence of each compound at 15 μM was determined in quadruplicate and quantified based on the difference in cell densities among the treatments, and cells were counted using a Neubauer counting chamber. A positive control with cycloheximide (3.55 μM) and a negative control with f/2 medium 0.1% DMSO were included.
as §3

Data set [5] concerns the target T1, Electrophorus electric AChE Type V-S (Electrophorus electricus, UniProt O42275).
T1 construct: purchased SIGMA C2888
The data set can be described thus: In vitro acetylcholinesterase (AChE) activity (Ellman). Type of data set: biochemical. Conditions: 25, 50 and 100 μM; versus negative control, p < 0.05. As to the method: (§4) The ability of the most promising compounds to inhibit AChE and Tyr was tested to assess their potential mode of action related with neurotransmission disruption or impairment of adhesive metabolism pathways, respectively.
AChE activity was evaluated using Electrophorus electric AChE Type V-S (SIGMA C2888, E.C. 3.1.1.7), according to Ellman et al. (1961) with some modifications. Reaction solution containing 1 M phosphate buffer pH 7.2, 10 mM dithiobisnitrobenzoate (DTNB) (acid dithiobisnitrobenzoate and sodium hydrogen carbonate in phosphate buffer) and 0.075 M […] was added to pure AChE enzyme (0.25 U/mL) and each test compound (final concentration of 25, 50 and 100 μM, 1% DMSO) in quadruplicate. All tests included a positive control with eserine (200 μM, water) and a negative control with 1% DMSO in water. The optical density was measured at 412 nm in a microplate reader (Biotek Synergy HT, Winooski, Vermont, USA) during 5 min at 25 °C.
(Ellman's reagent forms a yellow product with free thiols.)

For data set [6], the system named is Artemia salina nauplii. On the set-up: method as in PMID 29936172. The conditions noted are these: same concentrations (25 and 50 μM) and conditions; cited from earlier work.
For a further data set, the system named is Agaricus bisporus Tyr. The data set can be described thus: In vitro tyrosinase (Tyr) inhibition assay (L-Dopa to dopachrome). Type of data set: biochemical. As to the method:
as §4
Tyr inhibition assay was performed using Agaricus bisporus Tyr (EC1.14.18.1) according to Adhikari et al. (2008) with some modifications. The enzymatic reaction follows the catalytic conversion of L-Dopa to dopaquinone and the formation of dopachrome by measuring the absorbance at 475 nm. Briefly, Tyr (25 U/mL) was added to 50 mM phosphate buffer pH 6.5 and the tested compounds at 25, 50 and 100 μM (final concentrations, 1% DMSO). The enzymatic activity was triggered by the addition of L-dopa (25 mM). Kojic acid (1.4 mM, water) was included as positive control and 1% DMSO in water as negative control.

“And” between values parts separate entries of the source, which are not always exact repeats. Equal entries are not always repeated. Where two headings read alike, the source gives them in different places.

T1 sequence (O42275 24-633): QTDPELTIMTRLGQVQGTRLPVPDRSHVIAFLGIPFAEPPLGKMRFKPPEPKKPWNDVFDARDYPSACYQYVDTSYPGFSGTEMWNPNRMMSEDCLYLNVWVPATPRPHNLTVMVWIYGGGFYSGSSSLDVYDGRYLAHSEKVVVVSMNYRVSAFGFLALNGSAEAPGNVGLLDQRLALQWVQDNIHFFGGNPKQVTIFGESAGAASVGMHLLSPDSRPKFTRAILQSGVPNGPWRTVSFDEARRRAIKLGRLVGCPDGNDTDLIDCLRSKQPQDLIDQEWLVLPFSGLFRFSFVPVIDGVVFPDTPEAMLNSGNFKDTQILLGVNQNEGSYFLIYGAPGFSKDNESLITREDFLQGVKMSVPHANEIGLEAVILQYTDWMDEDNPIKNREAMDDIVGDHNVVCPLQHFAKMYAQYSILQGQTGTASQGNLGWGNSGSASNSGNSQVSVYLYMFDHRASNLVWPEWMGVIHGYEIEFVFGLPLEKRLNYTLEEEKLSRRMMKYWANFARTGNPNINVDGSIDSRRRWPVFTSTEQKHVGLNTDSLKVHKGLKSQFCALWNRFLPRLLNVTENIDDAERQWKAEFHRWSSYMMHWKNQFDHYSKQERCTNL

The melting point is the temperature of the solid-liquid transition. `COc1cc(-c2cc(=O)c3c(O)cc(OCc4cn([C@@H]5O[C@H](COC(C)=O)[C@@H](OC(C)=O)[C@H](OC(C)=O)[C@H]5OC(C)=O)nn4)cc3o2)cc(OC)c1OC` showed a melting point of 169 to 171 °C.

What is called LC50 is the concentration that kills 50% of the test population. For the compound `COc1ccc(/C=C/C(=O)c2ccc(OCc3cn(CCO[C@@H]4O[C@H](COC(C)=O)[C@@H](OC(C)=O)[C@H](OC(C)=O)[C@H]4OC(C)=O)nn3)cc2O)cc1OC` [8a, (2R,3R,4S,5R,6R)-2-(acetoxymethyl)-6-(2-(4-((4-((E)-3-(3,4-dimethoxyphenyl)acryloyl)-3-hydroxyphenoxy)methyl)-1H-1,2,3-triazol-1-yl)ethoxy)tetrahydro-2H-pyran-3,4,5-triyl triacetate], in data set [1], the LC50 at 15 h is over 200 µM. For the same compound, the EC50 in data set [2] (95% CI in cell) was determined as 35.8 µM; in data set [2], 27.1 µg/mL.

For the compound `COc1cc(-c2cc(=O)c3c(O)cc(OCc4cn(CCO[C@@H]5O[C@H](COC(C)=O)[C@@H](OC(C)=O)[C@H](OC(C)=O)[C@H]5OC(C)=O)nn4)cc3o2)cc(OC)c1OC` [4b, (2R,3R,4S,5R,6R)-2-(acetoxymethyl)-6-(2-(4-(((5-hydroxy-4-oxo-2-(3,4,5-trimethoxyphenyl)-4H-chromen-7-yl)oxy)methyl)-1H-1,2,3-triazol-1-yl)ethoxy)tetrahydro-2H-pyran-3,4,5-triyl triacetate], the median lethal concentration (LC50) at 15 h in data set [1] is over 200 µM. For the same compound, the EC50 in [2] (95% CI in cell) came to 48.2 µM; in data set [2] it was 38.6 µg/mL.

As for `C#CCOc1ccc(C(=O)/C=C/c2ccc(OC)c(OC)c2)c(O)c1` [6a], the LC50 at 15 h in data set [1] is over 200 µM. The EC50 turned out to be 84.5 µM in [2] (95% CI in cell) and 28.6 µg/mL in data set [2]. The “bacterial growth inhibition screening” value in [3] was “significant inhibitory activity”.

Take `COc1ccc(/C=C/C(=O)c2ccc(O)cc2O)cc1OC` [11a]: in data set [1], the LC50 at 15 h is over 200 µM. For the same compound, in data set [2] (95% CI in cell), the EC50 turned out to be 18.1 µM. Also, the “mortality of Artemia salina nauplii” value in the data set on Artemia salina nauplii [4] was “less than 10%”.

`COc1ccc(-c2cc(=O)c3c(O)cc(OCc4cn([C@@H]5O[C@H](COC(C)=O)[C@@H](OC(C)=O)[C@H](OC(C)=O)[C@H]5OC(C)=O)nn4)cc3o2)cc1OC` returned a melting point of 143 to 145 °C.

Regarding `COCOc1ccc(C(=O)/C=C/c2cc(OC)c(OC)c(OC)c2)c(O)c1`, the melting point is 132 to 134 °C.

On to `COc1cc(/C=C/C(=O)c2ccc(OCc3cn([C@@H]4O[C@H](COC(C)=O)[C@@H](OC(C)=O)[C@H](OC(C)=O)[C@H]4OC(C)=O)nn3)cc2O)cc(OC)c1OC` [7b, (2R,3R,4S,5R,6R)-2-(acetoxymethyl)-6-(4-((3-hydroxy-4-((E)-3-(3,4,5-trimethoxyphenyl)acryloyl)phenoxy)methyl)-1H-1,2,3-triazol-1-yl)tetrahydro-2H-pyran-3,4,5-triyl triacetate], for which the LC50 at 15 h in data set [1] was over 200 µM. Besides, the EC50 in data set [2] (95% CI in cell) is 3.28 µM; with Navicula sp. (240 h), 41.8 µM and 30.9 µg/mL. Further, in the data set with Navicula sp. (15 μM, Dunnett test p < 0.05), the “diatom growth inhibition screening” value was “significant inhibitory activity”. Besides, the AChE activity entry in data set [5] is “significantly induced”. Also, in the data set on Artemia salina nauplii [4], the “mortality of Artemia salina nauplii” value is on record as “less than 10%”.

For `N#Cc1c(-c2ccc(Cl)cc2)[nH]c(C(F)(F)F)c1Br` [ECONEA], in the data set on Artemia salina nauplii [6], the “lethality to Artemia salina” value is reported as 100%.

In the case of `COc1cc(/C=C/C(=O)c2ccc(O)cc2O)cc(OC)c1OC` [11b], in data set [1], the LC50 at 15 h is over 200 µM. Further, the EC50 in data set [2] (95% CI in cell) was 9.64 µM. The AChE activity entry in [5] is “significantly induced”. In the data set with Artemia salina nauplii [4], the “mortality of Artemia salina nauplii” value is recorded as “less than 10%”.

For the compound `COc1ccc(-c2cc(=O)c3c(O)cc(OCc4cn(CCO[C@@H]5O[C@H](COC(C)=O)[C@@H](OC(C)=O)[C@H](OC(C)=O)[C@H]5OC(C)=O)nn4)cc3o2)cc1OC` [4a, (2R,3R,4S,5R,6R)-2-(acetoxymethyl)-6-(2-(4-(((2-(3,4-dimethoxyphenyl)-5-hydroxy-4-oxo-4H-chromen-7-yl)oxy)methyl)-1H-1,2,3-triazol-1-yl)ethoxy)tetrahydro-2H-pyran-3,4,5-triyl triacetate], the LC50 at 15 h in data set [1] is over 200 µM. For the same compound, the EC50 in data set [2] (95% CI in cell) amounted to 42.6 µM; in data set [2], 32.8 µg/mL.

Regarding `C#CCOc1ccc(C(=O)/C=C/c2cc(OC)c(OC)c(OC)c2)c(O)c1` [6b], the LC50 at 15 h in data set [1] was over 200 µM. In addition, the figures for the EC50 in data set [2] (95% CI in cell) and in data set [2] were 85.6 µM and 31.5 µg/mL, respectively. Also, the “bacterial growth inhibition screening” value in [3] is reported as “significant inhibitory activity”.

In the case of `COc1cc(/C=C/C(=O)c2ccc(OCc3cn(CCO[C@H]4O[C@H](COC(C)=O)[C@@H](OC(C)=O)[C@H](OC(C)=O)[C@@H]4OC(C)=O)nn3)cc2O)cc(OC)c1OC` [8b, (2R,3R,4S,5S,6S)-2-(acetoxymethyl)-6-(2-(4-((3-hydroxy-4-((E)-3-(3,4,5-trimethoxyphenyl)acryloyl)phenoxy)methyl)-1H-1,2,3-triazol-1-yl)ethoxy)tetrahydro-2H-pyran-3,4,5-triyl triacetate], the LC50 at 15 h in data set [1] was over 200 µM. Also, the EC50 in data set [2] (95% CI in cell) was 53.9 µM; in data set [2] it was 42.4 µg/mL.

With `COc1cc(-c2cc(=O)c3c(O)cc(O)cc3o2)cc(OC)c1OC` [1b], the LC50 at 15 h in data set [1] is over 200 µM. For the same compound, the EC50 in data set [2] (95% CI in cell) was determined as 8.34 µM. Besides, the “inhibition of Tyr” value with Agaricus bisporus Tyr (100 µM) is given as 23.5%. Further, in the data set on Agaricus bisporus Tyr (all the concentrations tested (25, 50 and 100 μM), versus negative control), the Tyr activity result is reported as “significantly decrease Tyr activity”. The “mortality of Artemia salina nauplii” value in the data set with Artemia salina nauplii [4] was “less than 10%”.
